Activity calls are given as the source filed them. The rule behind the calls is not given here. Where a SMILES comes first, the peptide text is derived from it. Bridges are numbered along the chain shown (N, C = ends). [ ]: non-standard residue; d: D form. Nle = CCCC[C@H](N)C(=O)O A value given as a limit tells only on which side of the number the result lay.

Data on 12 compounds can be found in ChEMBL document CHEMBL6114953, “De novo discovery of cyclic peptide inhibitors of IL-11 signaling” (Bioorg Med Chem, 2025).

Experiment [1] in a line: Inhibition of his-tagged recombinant human IL-11 (22 to 199 residues) expressed in HEK293 cells/biotinylated recombinant human IL-11Ralpha (24 to 370 residues) expressed in HEK293 cells incubated for 1 hr by AlphaLISA assay. The format is cell-based. (In general: Bead proximity is the source of the signal in Alpha formats.)
Experiment [2] addresses T1, Interleukin-11 (Homo sapiens) (UniProt P20809).
T1 sequence (whole entry): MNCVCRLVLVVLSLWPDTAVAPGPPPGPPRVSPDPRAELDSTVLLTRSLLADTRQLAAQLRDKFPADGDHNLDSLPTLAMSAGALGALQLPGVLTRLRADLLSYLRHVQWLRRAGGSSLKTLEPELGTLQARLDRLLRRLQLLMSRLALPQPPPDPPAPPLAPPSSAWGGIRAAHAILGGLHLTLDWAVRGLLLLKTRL
Description: Binding affinity to CAP chip-immobilized IL-11 (unknown origin) by SPR analysis.

Experiment [3] concerns the target T2, Interleukin-11 receptor subunit alpha (Homo sapiens) (UniProt Q14626).
T2 sequence (whole entry): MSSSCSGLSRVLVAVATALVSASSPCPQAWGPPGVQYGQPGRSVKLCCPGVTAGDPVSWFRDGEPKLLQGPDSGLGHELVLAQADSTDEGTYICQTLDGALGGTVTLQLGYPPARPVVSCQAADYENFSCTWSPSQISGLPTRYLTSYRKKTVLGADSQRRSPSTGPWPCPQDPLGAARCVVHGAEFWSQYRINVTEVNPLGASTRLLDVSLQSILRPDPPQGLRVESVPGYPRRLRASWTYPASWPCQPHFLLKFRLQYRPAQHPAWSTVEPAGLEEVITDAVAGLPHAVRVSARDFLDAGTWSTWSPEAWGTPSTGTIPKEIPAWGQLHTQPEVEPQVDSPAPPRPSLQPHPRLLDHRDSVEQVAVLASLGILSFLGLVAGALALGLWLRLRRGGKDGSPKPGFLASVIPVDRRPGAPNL
Kind of experiment: Binding affinity to CAP chip-immobilized biotinylated recombinant human IL-11Ralpha by SPR analysis. On the technique in general: SPR reads the build-up and loss of mass on a sensor chip optically.

Experiment [4] is described as follows: Binding affinity to CAP chip-immobilized IL-6 (unknown origin) by SPR analysis. The note with it: Homo sapiens.
For experiment [5], the species on record is Homo sapiens. Kind of experiment: Binding affinity to CAP chip-immobilized IL-6R (unknown origin) by SPR analysis.

The Ki is a dissociation constant, usually derived from enzyme kinetics or from competition with a known ligand. On to `CC(C)C[C@@H]1NC(=O)[C@@H]2CCCN2C(=O)[C@H](C(C)C)NC(=O)[C@H](Cc2c[nH]c3ccccc23)NC(=O)[C@@H](NC(=O)[C@H](Cc2ccccc2)NC(=O)[C@H](CCC(=O)O)NC(=O)[C@@H](NC(=O)[C@@H](NC(=O)[C@H](CCC(=O)O)NC(=O)[C@H](C)N)[C@@H](C)O)C(C)C)CSSC[C@@H](C(N)=O)NC(=O)[C@H](C(C)C)NC(=O)[C@H](CCC(N)=O)NC(=O)[C@H](Cc2ccccc2)NC(=O)[C@H](Cc2ccc(O)cc2)NC(=O)[C@H](CO)NC1=O` (H-AETVEFCWVPLSYFQVC-NH2; disulfide 7-17), for which the inhibition constant (Ki) in experiment [1] amounted to 1500 nM. Also, the outcome in experiment [2], in experiment [3], in experiment [4] and in experiment [5] was inactive.
In the case of `Cc1c(-c2ccc(O)cc2)n(Cc2ccc(OCCN3CCCCCC3)cc2)c2ccc(O)cc12` [BAZEDOXIFENE], in experiment [1], the Ki is 11800 nM. Moreover, the outcome in experiment [3], in experiment [4] and in experiment [5] was inactive.
On to `CC(C)C[C@@H]1NC(=O)[C@@H]2CCCN2C(=O)[C@H](CC(C)C)NC(=O)[C@H](Cc2c[nH]c3ccccc23)NC(=O)[C@@H](NC(=O)[C@H](Cc2ccccc2)NC(=O)[C@H](CCC(=O)O)NC(=O)[C@@H](NC(=O)[C@@H](NC(=O)[C@H](CCC(=O)O)NC(=O)[C@H](C)N)[C@@H](C)O)C(C)C)CSSC[C@@H](C(N)=O)NC(=O)[C@H](Cc2ccccc2)NC(=O)[C@H](Cc2ccc(O)cc2)NC(=O)[C@H](Cc2c[nH]c3ccccc23)NC(=O)[C@H](Cc2c[nH]cn2)NC(=O)[C@H](CO)NC1=O` (H-AETVEFCWLPLSHWYFC-NH2; disulfide 7-17), for which the inhibition constant (Ki) in experiment [1] was 1360 nM. Moreover, the result in experiment [2], in experiment [3], in experiment [4] and in experiment [5] was inactive.
For `CC[C@H](C)[C@@H]1NC(=O)[C@H](Cc2c[nH]cn2)NC(=O)[C@H](Cc2c[nH]cn2)NC(=O)[C@H](C)NC(=O)[C@@H](NC(=O)[C@H](Cc2ccccc2)NC(=O)[C@H](CCC(=O)O)NC(=O)[C@@H](NC(=O)[C@@H](NC(=O)[C@H](CCC(=O)O)NC(=O)[C@H](C)N)[C@@H](C)O)C(C)C)CSSC[C@@H](C(N)=O)NC(=O)[C@H](Cc2c[nH]c3ccccc23)NC(=O)[C@H](Cc2c[nH]c3ccccc23)NC(=O)[C@H](Cc2c[nH]c3ccccc23)NC(=O)[C@H](C)NC(=O)[C@H](Cc2ccc(O)cc2)NC1=O` (H-AETVEFCAHHIYAWWWC-NH2; disulfide 7-17), the Ki in experiment [1] is 2400 nM.
Regarding `CC(C)C[C@@H]1NC(=O)[C@H](CCC(=O)O)NC(=O)[C@H](Cc2ccccc2)NC(=O)[C@H](CCC(N)=O)NC(=O)[C@@H]2CCCN2C(=O)[C@H](Cc2c[nH]c3ccccc23)NC(=O)[C@H](C(C)C)NC(=O)[C@H](Cc2ccc(O)cc2)NC(=O)[C@@H](NC(=O)[C@H](Cc2ccccc2)NC(=O)[C@H](CCC(=O)O)NC(=O)[C@@H](NC(=O)[C@@H](NC(=O)[C@H](CCC(=O)O)NC(=O)[C@H](C)N)[C@@H](C)O)C(C)C)CSSC[C@@H](C(N)=O)NC(=O)[C@H](C(C)C)NC1=O` (H-AETVEFCYVWPQFELVC-NH2; disulfide 7-17), in experiment [1], the Ki is 310 nM.
For `CSCC[C@@H]1NC(=O)[C@H](Cc2c[nH]cn2)NC(=O)[C@H](CO)NC(=O)[C@@H](NC(=O)[C@H](Cc2c[nH]c3ccccc23)NC(=O)[C@H](Cc2ccc(O)cc2)NC(=O)[C@H](Cc2ccccc2)NC(=O)[C@H](CCC(N)=O)NC(C)=O)CSSC[C@@H](C(=O)N[C@@H](Cc2c[nH]c3ccccc23)C(=O)N[C@@H](CCCNC(=N)N)C(N)=O)NC(=O)[C@H](C(C)C)NC(=O)[C@H]([C@@H](C)O)NC(=O)[C@H]([C@@H](C)O)NC(=O)[C@H](Cc2ccc(O)cc2)NC(=O)[C@H](Cc2ccc(O)cc2)NC1=O` (Ac-QFYWCSHMYYTTVCWR-NH2; disulfide 5-14), the Ki in experiment [1] worked out at 270 nM.
Turning to `C[C@@H]1NC(=O)[C@H](CCCNC(=N)N)NC(=O)[C@H](CCCNC(=N)N)NC(=O)CNC(=O)[C@@H](N)CSSC[C@@H](C(N)=O)NC(=O)[C@H](CO)NC(=O)CNC(=O)CNC1=O` (H-CGRRAGGSC-NH2; disulfide 1-9), the Ki in experiment [1] was over 28000 nM. Further, the outcome in experiment [2], in experiment [3], in experiment [4] and in experiment [5] was inactive.
With `CCCC[C@@H]1NC(=O)[C@H](Cc2c[nH]cn2)NC(=O)[C@H](CO)NC(=O)[C@@H](NC(=O)[C@H](Cc2c[nH]c3ccccc23)NC(=O)[C@H](Cc2ccc(O)cc2)NC(C)=O)CSSC[C@@H](C(=O)N[C@@H](Cc2c[nH]c3ccccc23)C(=O)N[C@@H](CCCNC(=N)N)C(N)=O)NC(=O)[C@H](C(C)C)NC(=O)[C@H]([C@@H](C)O)NC(=O)[C@H]([C@@H](C)O)NC(=O)[C@H](Cc2ccc(O)cc2)NC(=O)[C@H](Cc2ccc(O)cc2)NC1=O` (Ac-YWCSH[Nle]YYTTVCWR-NH2; disulfide 3-12), the Ki in experiment [1] is 900 nM.
Take `C=C(CCCCC)[C@@H](O)[C@H](C)C(=O)N1C(=O)OC[C@@H]1C(C)C`: the Ki in experiment [1] is over 28000 nM. Also, the outcome in experiment [2], in experiment [3], in experiment [4] and in experiment [5] was inactive.
As for `CSCC[C@@H]1NC(=O)[C@H](Cc2c[nH]cn2)NC(=O)[C@H](CO)NC(=O)[C@@H](NC(=O)[C@H](Cc2c[nH]c3ccccc23)NC(=O)[C@H](Cc2ccc(O)cc2)NC(=O)[C@H](Cc2ccccc2)NC(=O)[C@H](CCC(N)=O)NC(=O)[C@@H](NC(C)=O)C(C)C)CSSC[C@@H](C(=O)N[C@@H](Cc2c[nH]c3ccccc23)C(=O)N[C@@H](CCCNC(=N)N)C(N)=O)NC(=O)[C@H](C(C)C)NC(=O)[C@H]([C@@H](C)O)NC(=O)[C@H]([C@@H](C)O)NC(=O)[C@H](Cc2ccc(O)cc2)NC(=O)[C@H](Cc2ccc(O)cc2)NC1=O` (Ac-VQFYWCSHMYYTTVCWR-NH2; disulfide 6-15), in experiment [1], the Ki turned out to be 700 nM.
The same measure, in the same setting: under `CC(=O)N[C@@H](Cc1ccc(O)cc1)C(=O)N[C@@H](Cc1c[nH]c2ccccc12)C(=O)N[C@H]1CSSC[C@@H](C(=O)N[C@@H](Cc2c[nH]c3ccccc23)C(=O)N[C@@H](CCCNC(=N)N)C(N)=O)NC(=O)[C@H](C(C)C)NC(=O)[C@H]([C@@H](C)O)NC(=O)[C@H]([C@@H](C)O)NC(=O)[C@H](Cc2ccc(O)cc2)NC(=O)[C@H](Cc2ccc(O)cc2)NC(=O)[C@H](CC(C)C)NC(=O)[C@H](Cc2c[nH]cn2)NC(=O)[C@H](CO)NC1=O` (Ac-YWCSHLYYTTVCWR-NH2; disulfide 3-12) stands 1900 nM; under `CSCC[C@@H]1NC(=O)[C@H](Cc2c[nH]cn2)NC(=O)[C@H](CO)NC(=O)[C@@H](NC(=O)[C@H](Cc2c[nH]c3ccccc23)NC(=O)[C@H](Cc2ccc(O)cc2)NC(C)=O)CSSC[C@@H](C(=O)N[C@@H](Cc2c[nH]c3ccccc23)C(N)=O)NC(=O)[C@H](C(C)C)NC(=O)[C@H]([C@@H](C)O)NC(=O)[C@H]([C@@H](C)O)NC(=O)[C@H](Cc2ccc(O)cc2)NC(=O)[C@H](Cc2ccc(O)cc2)NC1=O` (Ac-YWCSHMYYTTVCW-NH2; disulfide 3-12), over 28000 nM.
